What follows are compounds tested against T1, monoglyceride lipase (MGLL) (Homo sapiens, UniProt Q99685) (assay: natural substrate assay, residual MGLL activity). Conditions: enzyme preparation and conditions only in Supplementary section D.
T1 construct: enzyme source only in Supplementary section D
T1 sequence (Q99685 1-303): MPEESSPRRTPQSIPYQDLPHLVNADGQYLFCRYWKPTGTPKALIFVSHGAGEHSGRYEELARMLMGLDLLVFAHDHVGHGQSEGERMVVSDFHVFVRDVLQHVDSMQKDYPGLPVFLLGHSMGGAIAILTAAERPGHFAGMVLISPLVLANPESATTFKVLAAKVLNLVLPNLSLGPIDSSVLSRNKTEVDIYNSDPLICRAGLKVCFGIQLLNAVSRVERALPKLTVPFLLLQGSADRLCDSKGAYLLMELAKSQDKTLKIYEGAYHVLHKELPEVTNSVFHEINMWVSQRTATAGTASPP

Row | SMILES | IC50
1 | O=C(OC(C(F)(F)F)C(F)(F)F)N1CCN(C2CCCCC2)CC1 [compound 1, Compound 1] | 1 µM
2 | O=C(N1CCCC(c2ccc(F)cc2)C1)n1nnc2ccccc21 (stereo not drawn) [compound 2] | ~100 µM
3 | O=C(c1nccs1)N1CCN(C(c2ccccc2)c2ccccc2)CC1 [compound 3] | ~100 µM

Source: publication PMC11954305, “Generate what you can make: achieving in-house synthesizability with readily available resources in de novo drug design” (Journal of Cheminformatics, 2025)
